Source: patent US20030008024A1, “Therapeutic composition of herbal extracts and the uses thereof” (Advanced Herbal Therapeutics, Inc., priority 2001, published 2003)

Key:
[1] = system: paw swelling induced by carrageenin; assay: Paw swelling induced by carrageenin in rat; type: in vivo, SD rats; conditions: 0.25 g/kg p.o. 3 days
Experimental: A total of 50 SD rats weighing 100-120g with equal sex distribution were randomly divided into 5 groups. The rats were treated p.o. with different doses of AHT-323, tragacanth, or aspirin once daily for 3 days. One hour later, rats were given subcutaneously injections with 0.05 ml of carrageenin (1%) in the right paw of each rat. The degree of paw swelling was measured using the drainage method before and 1, 3, 4, 5, and 6 h after injection of the carrageenin.

peritoneal macrophage = assay: CRBC phagocytosis of peritoneal macrophage of mice; type: in vivo; conditions: 0.005 g/kg p.o. once daily 7 days
Experimental: Totals of 50 NIH mice weighing 18-22 g with equal sex distribution were randomly divided into 5 groups. The mice were treated p.o. with different doses of AHT-323 or other positive control drug once daily for 7 days. 1 h after the last dose, mice were injected i.p. with 0.2 ml […] of chick (10%). 4 h later, mice were sacrificed and the peritoneal fluid was obtained. Under microscope, the amount of macrophage that phagocytosed CRBC and the amount of CRBC phagocytosed by each macrophage were counted.

WBC of pleura = assay: Migration of inflammatory cells of pleura (Fucus siliquosus glue); type: in vivo, NIH mice; conditions: 0.05 g/kg
Experimental: A total of 50 NIH mice were randomly divided into five groups. 0.5% Evans blue saline was injected into caudal vein at 0.1 ml/10 g body weight. Then mice were lightly anesthetized with ether and injected with 0.03 ml of Fucus siliquosus glue into right thoracic cavity to induce inflammation. 4 h and 32 h after inflammation induction, the mice were sacrificed and 2 ml of thoracic cavity wash liquid was collected and used to count the WBC and measure the optical density (OD) at 600 nm. […] The regression equation on 4 h was y=44.13-2.01x, r=0.9625.

[2] = system: ear swelling induced by croton oil; assay: Ear swelling induced by croton oil; type: in vivo, NIH mice; conditions: 0.003 g/kg p.o. once daily 3 days
Experimental: A total of 60 NIH mice weighing 18-22 g with equal sex distribution were randomly divided into 6 groups. The mice were treated p.o. with different doses of AHT-323, tragacanth, or DXM once daily for 3 days. One hour after the last administration, 0.02 ml croton oil (2%) was pasted around the left auricle. Four hours later, mice were sacrificed by dislocating cervical vertebrae. The right and left ears were cut off and weighed to get the differences in the degree of ear swelling.

cotton granuloma = assay: Cotton granuloma and organ weights; type: in vivo, SD rats; conditions: 0.05 g/kg p.o. once daily 7 days
Experimental: 150 SD rats weighing 150-180 g with equal sex distribution were randomly divided into 15 groups. After light anesthesia with ether, an aseptic cotton ball (10 mg) was implanted into each armpit. On that day, rats were administered p.o. with different doses of AHT-323 or DXM once daily for 7 days. Twenty four hours after the last drug administration, the rats were sacrificed and the cotton balled granuloma were removed. The wet and dry weight of the granuloma, and other organs were obtained.

[3] = system: adjuvant arthritis (AA) rats; assay: Therapeutic effect on adjuvant arthritis rats (swelling); type: in vivo, SD rats; conditions: 0.01 g/kg
Experimental: (§1) In the study, 60 male SD rats weighing 180-220 g were used and randomly divided into 5 groups, including three test groups, one negative and one positive control groups. The rats were given p.o. three different dosages of AHT-323, tragacanth, or prednisone, respectively, once daily for 4 consecutive weeks. 0.1 ml of Freund's Complete Adjuvant (FCA) was also injected intradermally into the plantar of left hind paw of rats […]. Each day, the maximal circumference of both left and right paw and ankle joint were measured, and the swelling degrees (mm) were calculated to determine the AHT-323 on both primary and secondary injury. The primary injury occurs at the homolateral joints of the adjuvant injection and is resulted from direct, non-specific inflammatory reaction of the body to adjuvant. Whereas the secondary injury occurs at the contralateral joints of the adjuvant injection in about two weeks after adjuvant injection and is related to auto-immune responses induced by adjuvant injection. The pathological changes of human rheumatoid arthritis is similar to that of the secondary injury in AA rats.
Totals of 50 male SD rats were divided into 5 groups with the same treatment as experiments described in section 3.3.1 except that the AHT-323 was given p.o. from d13˜d28 once daily for 2 weeks, (from the thirteenth day after injection of Freund's Complete Adjuvant).

[4] = system: adjuvant arthritis (AA) rats; assay: Prophylactic effect on rat adjuvant arthritis (paw and ankle swelling); type: in vivo, SD rats; conditions: 0.01 g/kg p.o.
Experimental: The study was conducted in adjuvant arthritis (AA) rats, an experimental model for human rheumatoid arthritis.
as §1

T cells of AA mice = T cells of AA mice (esterase stain, flow cytometry); type: in vivo, NIH mice; conditions: 0.012 g/kg
Experimental: A total of 60 NIH mice weighing 20±2 g were randomly divided into 6 groups, among which four groups were injected intradermially with 0.05 ml FCA to induce AA model mice. The negative control group was injected intradermially with 0.05ml saline. The rats in AHT-323 test groups were administrated orally with AHT-323 once daily for consecutive five days. Five days later, peripheral blood was drawn from mice in all groups and stained with esterase. The percent of T cells (positive esterase stained cells) was calculated.
The above mice were anesthetized and spleens were removed and made into splenocytes suspension. CD4^+ T cells and CD8^+ T cells were assayed with flow cytometry and CD4^+/CD8^+ was calculated.

SMILES: CC(=O)Oc1ccccc1C(=O)O [Aspirin, aspirin]
- Paw swelling rate (%) ([1]; 1 h): 6.3 ± 4.1 %
- Paw swelling rate (%) ([1]; 3 h): 11.1 ± 6.3 %
- Paw swelling rate (%) ([1]; 4 h): 17.9 ± 7.6 %
- Paw swelling rate (%) ([1]; 5 h): 18.1 ± 7.0 %
- Paw swelling rate (%) ([1]; 6 h): 20.6 ± 6.0 %

SMILES: C[C@@H]1C[C@H]2[C@@H]3CCC4=CC(=O)C=C[C@]4(C)[C@@]3(F)[C@@H](O)C[C@]2(C)[C@@]1(O)C(=O)CO [DXM, dexamethasone]
- Phagocytic index (peritoneal macrophage): 1.10 ± 0.18
- Phagocytic percent (%) (peritoneal macrophage): 8.33 ± 10.13 %
- WBC count (WBC of pleura; 4 h after inflammation induction): 12.7 ± 10.2
- WBC count (WBC of pleura; 32 h): 4.4 ± 4.0
- Swelling degree [2]: 14.13 ± 5.75 mg
- inhibition at 3 mg/kg ([2]; Mus musculus, po, 72 h, read-out: Inhibition rate): 68.2%
- Granuloma Wt. Dry Wt. (cotton granuloma): 77 ± 17 mg/100 g
- Granuloma Wt. Wet Wt. (cotton granuloma): 346 ± 92 mg/100 g
- Weight of organs: Adrenal (cotton granuloma): 17 ± 5 mg/100 g
- Weight of organs: Spleen (cotton granuloma): 412 ± 173 mg/100 g
- Weight of organs: Thymus (cotton granuloma): 38 ± 13 mg/100 g
- Weight of organs: uterus (cotton granuloma): 126 ± 33 mg/100 g

SMILES: C[C@]12C=CC(=O)C=C1CC[C@@H]1[C@@H]2C(=O)C[C@@]2(C)[C@H]1CC[C@]2(O)C(=O)CO [Prednisone, prednisone]
- Swelling degree ([3]; primary injury, therapeutic (p.o. d13˜d28), D1): 1.78 ± 0.51 cm
- Swelling degree ([3]; primary injury, therapeutic (p.o. d13˜d28), d2): 1.70 ± 0.51 cm
- Swelling degree ([3]; primary injury, therapeutic (p.o. d13˜d28), d4): 1.63 ± 0.50 cm
- Swelling degree ([3]; primary injury, therapeutic (p.o. d13˜d28), d6): 1.58 ± 0.50 cm
- Swelling degree ([3]; primary injury, therapeutic, 2nd block col 1 (day not given)): 1.27 ± 0.46 cm
- Swelling degree ([3]; primary injury, therapeutic, 2nd block col 2 (day not given)): 1.09 ± 0.54 cm
- Swelling degree ([3]; primary injury, therapeutic, 2nd block col 3 (day not given)): 0.94 ± 0.50 cm
- Swelling degree ([3]; primary injury, therapeutic, 2nd block col 4 (day not given)): 0.94 ± 0.42 cm
- Swelling degree ([3]; secondary injury, therapeutic (p.o. d13˜d28), D1): 1.08 ± 00.41 cm
- Swelling degree ([3]; secondary injury, therapeutic (p.o. d13˜d28), d2): 1.18 ± 00.44 cm
- Swelling degree ([3]; secondary injury, therapeutic (p.o. d13˜d28), d4): 1.23 ± 00.42 cm
- Swelling degree ([3]; secondary injury, therapeutic (p.o. d13˜d28), d6): 1.19 ± 00.38 cm
- Swelling degree ([3]; secondary injury, therapeutic, 2nd block col 1 (day not given)): 0.88 ± 00.47 cm
- Swelling degree ([3]; secondary injury, therapeutic, 2nd block col 2 (day not given)): 0.95 ± 00.43 cm
- Swelling degree ([3]; secondary injury, therapeutic, 2nd block col 3 (day not given)): 0.82 ± 00.48 cm
- Swelling degree ([3]; secondary injury, therapeutic, 2nd block col 4 (day not given)): 0.75 ± 00.37 cm
- Swelling degree ([4]; primary injury, 2nd block col 1 (day not given)): 1.18 ± 0.76 cm
- Swelling degree ([4]; primary injury, 2nd block col 2 (day not given)): 1.03 ± 0.67 cm
- Swelling degree ([4]; primary injury, 2nd block col 3 (day not given)): 1.05 ± 0.69 cm
- Swelling degree ([4]; primary injury, 2nd block col 4 (day not given)): 0.90 ± 0.64 cm
- Swelling degree ([4]; primary injury, 2nd block col 5 (day not given)): 0.86 ± 0.65 cm
- Swelling degree ([4]; primary injury, 2nd block col 6 (day not given)): 0.85 ± 0.59 cm
- Swelling degree ([4]; primary injury, d1): 0.64 ± 0.14 cm
- Swelling degree ([4]; primary injury, d2): 0.64 ± 0.16 cm
- Swelling degree ([4]; primary injury, d3): 0.50 ± 0.26 cm
- Swelling degree ([4]; primary injury, d9): 0.46 ± 0.25 cm
- Swelling degree ([4]; primary injury, d12): 0.72 ± 0.46 cm
- Swelling degree ([4]; primary injury, d14): 0.87 ± 0.46 cm
- Swelling degree ([4]; primary injury, d16): 1.28 ± 0.69 cm
- Swelling degree ([4]; secondary injury, 2nd block col 1 (day not given)): 0.78 ± 0.70 cm
- Swelling degree ([4]; secondary injury, 2nd block col 2 (day not given)): 0.72 ± 0.71 cm
- Swelling degree ([4]; secondary injury, 2nd block col 3 (day not given)): 0.67 ± 0.64 cm
- Swelling degree ([4]; secondary injury, 2nd block col 4 (day not given)): 0.62 ± 0.61 cm
- Swelling degree ([4]; secondary injury, 2nd block col 5 (day not given)): 0.65 ± 0.64 cm
- Swelling degree ([4]; secondary injury, D9): 0.038 ± 0.048 cm
- Swelling degree ([4]; secondary injury, d2): 0.016 ± 0.039 cm
- Swelling degree ([4]; secondary injury, d12): 0.14 ± 0.14 cm
- Swelling degree ([4]; secondary injury, d14): 0.38 ± 0.39 cm
- Swelling degree ([4]; secondary injury, d16): 0.92 ± 0.62 cm
- Swelling degree ([4]; secondary injury, d18): 0.78 ± 0.71 cm

SMILES: CC(=O)OC[C@]12[C@H](OC(C)=O)[C@H](OC(C)=O)[C@@H]3[C@@H](OC(C)=O)[C@@]14O[C@@]3(C)COC(=O)c1cccnc1CCC(C)(O)C(=O)O[C@@H]([C@H](OC(=O)c1ccccc1)[C@@H]2OC(C)=O)[C@]4(C)O (stereo partly shown) [Wilfordine]
- CD4^+/CD8^+ (T cells of AA mice): 1.70 ± 0.03
- ANAE^+ (%) (T cells of AA mice; peripheral blood): 48.88 ± 2.89%
- CD4^+ (%) (T cells of AA mice; splenocytes): 27.88 ± 1.99 %
- CD8^+ (%) (T cells of AA mice; splenocytes): 16.33 ± 1.31 %
